{
  "source": "patent US10716305B2",
  "about": "“Anti-bacterial compositions” (priority 2015, dated 2020)",
  "key": {"[1]": {"system": "BALB/C 3T3 mouse fibroblast cell line", "assay": "3T3 Neutral Red Uptake Phototoxicity Assay", "type": "cell-based", "conditions": "for EC50: Mus musculus", "description": "The cytotoxicity and phototoxicity of the test composition to 3T3 cells (in the presence or absence of UVA light) was assessed by Neutral Red Uptake. The 3T3 Neutral Red Uptake Phototoxicity Assay (3T3 NRU PT), based on the OECD Guideline for Testing of Chemicals: […] An Ultraviolet-Visible light (UV-VIS) spectral scan was performed on a solution containing 0.1% of the test composition in a solution of 1% DMSO/HBSS. […] For both the range-finding screen and the definitive test of the 3T3 assay, BALB/C 3T3 cells were seeded in the central 60 wells of duplicate 96-well microplates and maintained in culture for approximately 24 hours. The two 96-well plates were then preincubated with eight different concentrations of the test composition for approximately one hour. After preincubation, one plate was irradiated with a dose of 5 J/cm^2 Solar Simulated Light (SSL, containing wavelengths in the UVA and visible regions with >99% of UVB blocked out), while the duplicate plate was kept in the dark (No SSL). After UV irradiation, the treatment medium was replaced with culture medium and, after approximately 24 hours, cell viability was determined by neutral red uptake for three hours. A range finding screen was performed to determine the acceptable concentrations for the definitive test. MS Excel® was used to calculate the EC50 values and Photo-Irritant Factor (PIF) for the test article and the Chlorpromazine (CPZ) positive control in both the Screen and the Definitive test."}, "[2]": {"system": "MatTek EpiDerm tissue (Reconstructed Human Epidermis)", "assay": "MatTek EpiDerm Skin Irritation Test (SIT)", "type": "cell-based", "conditions": "60 minutes treatment", "description": "This test was conducted to predict dermal irritation potential of test articles in the context of identification and classification of skin irritation hazard according to the European Union (EU) classification ([…] or no label), United Nations Globally Harmonized System of Classification and Labeling of Chemicals (GHS) classification system (Category 2 and non-irritants), and OECD Guideline for the Testing of Chemicals No. 439-In Vitro Skin Irritation: Reconstructed Human Epidermis Test Method. This study was designed based on MatTek protocol in vitro EpiDermTM Skin Irritation Test. MatTek EpiDermTM tissue samples were treated in triplicate with the test composition, Negative Control and Positive Control for 60 minutes. Following treatment and subsequent incubation time, the viability of the tissues was determined using Methyl thiazole tetrazolium (MTT) uptake and reduction. The absorbance of each sample was measured at 540 nm. The viability was then expressed as a percent of control values. If the mean tissue viability was ≤50%, the test material was classified as an irritant; if the mean tissue viability was […]."}, "MRSA": {"system": "MRSA", "assay": "Comparative efficacy study, oral gavage, MRSA induction IP", "type": "in vivo, BALB/C mice", "conditions": "oral treatment for 7 days, Composition A 100 mg/kg, antibiotics per RX dose converted to mice", "description": "Efficacy Study in comparison to leading anti-MRSA antibiotics was conducted in BALB/C mice.\n7a. Administration Route: Oral Gavage\nGroup 1 (6 mice males)—MRSA Induction IP no treatment\nGroup 2 (6 mice males)—MRSA Induction IP—oral treatment for 7 days\nGroup 3 (6 mice males)—No Induction—oral treatment for 7 days\nFor the antibiotics the dose was as per RX prescription converted to mice Body Weights.\n1—Erythromycin 250 mg/pt b.i.d. equals 2.1 mg/20 g mouse/day 300 mg total/12 mice\n2—Clindamycin 150 mg/pt b.i.d. equals 1.25 mg/20 g mouse/day 200 mg total/12 mice\n3—Vancomycine 250 mg/pt b.i.d. equals 2.1 mg/20 g mouse/day 300 mg total/12 mice"}, "bovine corneas": {"system": "bovine corneas", "assay": "OECD Bovine Corneal Opacity and Permeability Test (BCOP)", "conditions": "0.75 ml, 10-minute exposure", "description": "This protocol is based on the methodology described in the current OECD Guideline for the Testing of Chemicals #437.\nFollowing a 10-minute exposure for each group of dosed corneas, opacity measurements and sodium fluorescein permeability were determined."}},
  "note": "Read-outs that look alike come from different tables or passages of the source.",
  "data": [
    {"smiles": "CN(C)CCCN1c2ccccc2Sc2ccc(Cl)cc21", "note": "[CPZ, Chlorpromazine]", "values": [
      {"measurement": "EC50", "setting": "[1]; BALB/c3T3, light or radiation study, 5 J/cm^2 Solar Simulated Light, range tested 0.22-3.16 μg/ml, read-out: EC50 + SSL", "result": 0.4, "unit": "µg/mL"},
      {"measurement": "EC50", "setting": "[1]; BALB/c3T3, dark, range tested 6.81-100 μg/ml, read-out: EC50 No SSL", "result": 18.8, "unit": "µg/mL"},
      {"measurement": "PIF (Photo-Irritant Factor)", "setting": "[1]; definitive test", "result": 47.0}
    ]},
    {"smiles": "CCCCCCCCCCCCOS(=O)(=O)[O-].[Na+]", "note": "[5% Sodium Dodecyl Sulfate, Sodium Dodecyl Sulfate]", "values": [
      {"measurement": "Irritancy Classification", "setting": "[2]", "result": "Irritant (mean tissue viability was ≤50%, the test material was classified as an irritant)"},
      {"measurement": "Mean Tissue Viability", "setting": "[2]; MTT, percent of control", "result": 3.1, "unit": "%"}
    ]},
    {"smiles": "CN[C@H](CC(C)C)C(=O)N[C@H]1C(=O)N[C@@H](CC(N)=O)C(=O)N[C@H]2C(=O)N[C@H]3C(=O)N[C@H](C(=O)N[C@H](C(=O)O)c4cc(O)cc(O)c4-c4cc3ccc4O)[C@H](O)c3ccc(c(Cl)c3)Oc3cc2cc(c3O[C@@H]2O[C@H](CO)[C@@H](O)[C@H](O)[C@H]2O[C@H]2C[C@](C)(N)[C@H](O)[C@H](C)O2)Oc2ccc(cc2Cl)[C@H]1O", "note": "[vancomycin, Vancomycin]", "values": [
      {"measurement": "blood cell culture", "setting": "MRSA", "result": "one colony"}
    ]},
    {"smiles": "CC[C@H]1OC(=O)[C@H](C)[C@@H](O[C@H]2C[C@@](C)(OC)[C@@H](O)[C@H](C)O2)[C@H](C)[C@@H](O[C@@H]2O[C@H](C)C[C@H](N(C)C)[C@H]2O)[C@](C)(O)C[C@@H](C)C(=O)[C@H](C)[C@@H](O)[C@]1(C)O", "note": "[Erythromycin]", "values": [
      {"measurement": "blood cell culture", "setting": "MRSA", "result": "two colonies"}
    ]},
    {"smiles": "CCO", "note": "[100% Ethanol, Ethanol]", "values": [
      {"measurement": "Corrected Mean Opacity Score", "setting": "bovine corneas", "result": 22.66},
      {"measurement": "In Vitro Irritation Score (IVIS)", "setting": "bovine corneas", "result": 32.34}
    ]}
  ]
}
